The values that follow come from patent publication US20090172826A1, “Model System for TCR (ZETA) Chain Downregulation” (priority 2003, published 2009).

The test system of data set [1] is splenocytes isolated from P. gingivalis-treated mice. It counts as cell-based, mouse. The settings on record: NH4Cl 20 mM 20 h or bafilomycin A1 5 h at 37° C.
The subject of data set [2] is TCR ζ chain. The data set can be described thus: In vitro incubation of isolated T cells and non-T cells with IFN-γ or anti-IFN-γ, ζ chain FACS. In kind it is cell-based, mouse. The settings on record: IFN-γ 50 U/ml, 24 h, with or without control non-T cells. As for the experimental part:
T cells alone or mixed with the indicated non-T cell populations were incubated in vitro for 24 h in the presence or absence of IFN-γ (50 U/ml). Cells were stained for cell surface Thy 1.2 and for total ζ chain expression, as described in FIG. 1A-F, and ζ chain expression is shown.
To examine whether IFN-γ directly or indirectly affects all T cell populations in the spleen, T cells from control mice were exposed to IFN-γ in the presence or absence of control non-T cell populations in vitro.

Data set [3] relates to TCR ζ chain. Kind of data set: TCR ζ chain expression in T cells of antigen-treated mice (immunoblot, FACS, confocal). It counts as in vivo, mouse. The settings on record: full repeated-injection regimen, wild-type mice, versus control mice. In general terms: Immunoblotting shows a protein as a band on a membrane.
Data set [4] concerns splenic T cells. The data set can be described thus: CFSE division of splenic T cells from treated mice after ex vivo activation. In kind it is in vivo, mouse. The settings on record: BALB/c mice.
Data set [5] concerns splenic T cells. The data set can be described thus: BrdU incorporation in Thy1.2+ splenic T cells from treated mice after ex vivo activation. Also on record: species or system mouse. The settings on record: for percentage of BrdU+ T cells of total T cells: BALB/c mice. Background: Uptake of a labelled nucleoside into DNA is a usual measure of proliferation.
Another data set has as its system splenocytes. Kind of data set: Mitogen-induced splenocyte proliferation, 3H-thymidine uptake. In kind it is in vivo, mouse. Conditions: percent of response in control mice, FIG. 6c.
A short description of data set [6]: Specific serum IgG1 and IgG2a antibodies by ELISA. Conditions: serum at day +9. It counts as in vivo, mouse. An excerpt: FIG. 6A: To determine the type of response, mice were bled at day +9 of the experiment and the titer and isotype of the specific antibodies was established by ELISA. Endpoint titers are expressed as the reciprocal values of the last dilution with an OD of 0.1 at 405 nm above maximal absorbance values of samples collected from non-immunized mice.
(§1) Serum samples were collected at day +9 of the experiment and analyzed by ELISA for the levels of P.g.- or OVA-specific IgG1 and IgG2a antibodies as previously described [Houri-Haddad et al. (2000) id ibid.]. IFN-γ and IL-10 concentrations in the chamber exudates were determined at 4 and 24 h, respectively after the third P.g. injection by two-site ELISA [Frolov, I. et al. (1998) Immunology 93, 323-8].
For orientation: An ELISA detects its analyte on a solid surface through an enzyme-linked reagent.

The test system of the next data set is IFN-γ. The data set can be described thus: IFN-γ in chamber exudates by ELISA. It counts as in vivo, mouse. The settings on record: 4 h after the third injection. As for the experimental part:
(§2) The results are presented as the mean value of the individual mice in each treatment group. (n.d.) not detectable values of IFN-γ in the OVA-treated mice.
as §1

The next data set relates to IL-10. Kind of data set: IL-10 in chamber exudates by ELISA. In kind it is in vivo, mouse. The settings on record: 24 h after the third injection; P. gingivalis- versus OVA-treated mice. As for the experimental part: as §2, §1
Setting [7] is: anti-CD3 and anti-CD28, 60 hours.
[8] abbreviates: activation with PMA and ionophore.
Setting [9] is: activation with anti-CD3 and anti-CD28.

Take `Cl.N` [NH4Cl]: the “ζ protein expression after incubation with lysosome inhibitor” value in data set [1] was “largely restored ζ protein expression”.

On to IFN-γ, for which, in the data set on TCR ζ chain [2], the “ζ chain expression in control T cells exposed in vitro” value is listed as “did not affect ζ chain expression”.

As for 5′-TGACTGTGAACGTTCGAGATGA-3′ [CpG-ODNs], the “ζ chain expression in splenocytes / splenic T cells” value in the data set on TCR ζ chain [3] was “significant ζ chain down-regulation”. Also, the “percentage of CFSE-labeled splenic T cells which divided 1-5 times” value is given as 57% in the data set on splenic T cells [4] (PMA and ionophore, 60 hours); 6% in the data set on splenic T cells [4] (setting [7]). For the same molecule, the “T cell proliferation by BrdU incorporation” value with splenic T cells [5] (TCR-mediated stimuli (anti-CD3, Con A), compared to controls) is given as “significantly lower response”. Further, the “percentage of BrdU+ T cells of total T cells” value with splenic T cells [5] (activation with ConA) is on record as 39%; in the data set with splenic T cells [5] (setting [8]), 80%; in the data set on splenic T cells [5] (setting [9]), 9%.

In the case of `CO/C1=C\C(C)=C\[C@@H](C)[C@@H](O)[C@@H](C)C/C(C)=C/C=C/[C@H](OC)[C@@H]([C@@H](C)[C@@H](O)[C@H](C)[C@@]2(O)C[C@@H](O)[C@H](C)[C@@H](C(C)C)O2)OC1=O` [bafilomycin A], the “ζ protein expression after incubation with lysosome inhibitor” value in data set [1] was “largely restored ζ protein expression”.

With “5′-TGACTGTGAAGGTTGGAGATGA-3′ (listed as DNA, chemistry not given here) [mutated CpG-ODNs, ID; NO.2]”, the “percentage of CFSE-labeled splenic T cells which divided 1-5 times” value in the data set with splenic T cells [4] (PMA and ionophore, 60 hours) is 80%; in the data set with splenic T cells [4] (setting [7]) it was 84%. Also, the “percentage of BrdU+ T cells of total T cells” value is on record as 83% in the data set on splenic T cells [5] (activation with ConA), 57% in the data set with splenic T cells [5] (setting [8]) and 71% with splenic T cells [5] (setting [9]).

B1: OVA: chicken ovalbumin adsorbed to Al(OH)3 (Alum), then in PBS; elicits a TH2 response (protein, UniProt P01012 2-386, looked up)
Ovalbumin: GSIGAASMEFCFDVFKELKVHHANENIFYCPIAIMSALAMVYLGAKDSTRTQINKVVRFDKLPGFGDSIEAQCGTSVNVHSSLRDILNQITKPNDVYSFSLASRLYAEERYPILPEYLQCVKELYRGGLEPINFQTAADQARELINSWVESQTNGIIRNVLQPSSVDSQTAMVLVNAIVFKGLWEKAFKDEDTQAMPFRVTEQESKPVQMMYQIGLFRVASMASEKMKILELPFASGTMSMLVLLPDEVSGLEQLESIINFEKLTEWTSSNVMEERKIKVYLPRMKMEEKYNLTSVLMAMGITDVFSSSANLSGISSAESLKISQAVHAAHAEINEAGREVVGSAEAGVDAASVSEEFRADHPFLFCIKHIATNAVLFFGRCVSP
modifications: adsorbed to alum
notes: chicken ovalbumin adsorbed to Al(OH)3 (Alum), then in PBS; elicits a TH2 response
On to B1, for which the “ζ chain expression in splenocytes / splenic T cells” value in the data set on TCR ζ chain [3] is recorded as “did not induce profound ζ downregulation”. For the same molecule, the “function (proliferative response) of T cells in the spleen” value in the data set on splenocytes is “normal function”. Also, the “specific serum antibodies, IgG1 and IgG2a isotype” value in [6] is “of the IgG1 isotype and not of the IgG2a isotype”. For the same molecule, in the data set with IFN-γ, the “IFN-γ concentration in chamber exudates” value was “practically undetectable”. Also, in the data set with IL-10, the “IL-10 concentration in chamber exudates” value is recorded as “no great difference”.
